26 compounds from US20220087987A1, “A METHOD FOR TREATING SWI/SNF COMPLEX-DEFICIENT CANCERS COMPRISING GLUTATHIONE (GSH) METABOLIC PATHWAY INHIBITOR” (National Cancer Center, priority 2018, published 2022) can be followed below.

The structures appear in SMILES notation. Where a name gives a salt, the structure may show the parent alone.

Holding throughout (format): cell-based, human
The test system of one data set is p53, p21. In words: Immunoblot for p53 and p21. The settings on record: ARID1A-WT and ARID1A-KO HCT116; 50 μM PRIMA-1, 50 μM APR-246, 10 μM Nutlin3a, 16 hrs. As for the experimental part:
The soluble fractions of whole-cell lysates were mixed with SDS sample buffer. […] The soluble fractions were mixed with SDS sample buffer. Tumor samples derived from xenografts were weighed and washed with PBS. […] The homogenized tumor samples were diluted in an additional 450 μl of NETN420 buffer, incubated for 30 min on ice, and centrifuged at 4° C. for 10 min at 15,000 rpm. The soluble fractions of whole-cell lysates were mixed with SDS sample buffer. Proteins were separated by SDS-PAGE, transferred to PVDF membranes, and immunoblotted with the indicated antibodies. β-actin was used as a loading control. Membranes were blocked overnight at 4° C. or for 1 hr at 25° C. with PVDF Blocking Reagent for Can Get Signal (TOYOBO) and then probed with Can Get Signal Solution 1 (TOYOBO) containing primary antibodies. After washing with TBS containing 0.1% Tween 20, the membranes were incubated with TBS containing 0.1% Tween 20, 1% BSA, and horseradish peroxidase-conjugated anti-mouse or anti-rabbit secondary antibodies, and visualized using Western Lightning ECL Pro (Perkin Elmer). Chemiluminescence signals were measured using LAS-3000 Imaging System (Fujifilm). Signal intensities were measured using Multi Gauge software.
(Immunoblotting shows a protein as a band on a membrane.)

Data set [1] has as its system ARID1A-proficient and ARID1A-deficient cancer cell lines. Briefly: Cell viability and colony formation in cancer cell line panel.
For another data set, the system named is GSH. In words: Detection of GSH in cells (GSH/GSSG-Glo, GSH-Glo). Conditions: ARID1A-deficient versus ARID1A-proficient ovarian and other cancer cells.
For a further data set, the system named is ROS. In words: Detection of ROS in cells (ROS-Glo). Conditions: ARID1A-deficient versus ARID1A-proficient ovarian and other cancer cells. As for the experimental part:
GSH, ROS and apoptosis were detected using the GSH/GSSG-Glo Assay (Promega) and/or the GSH-Glo Assay (Promega), the ROS-Glo Assay (Promega), and the Caspase-Glo 3/7 Assay, respectively. To measure levels of GSH, ROS and apoptosis after drug treatment, cells were trypsinized, counted, reseeded at the specified density in 96-well plates and exposed to the indicated concentrations of drugs. After 16-48 hrs, luminescence was measured using an Envision Multi-label plate reader (PerkinElmer). To measure levels of GSH and ROS after siRNA-mediated knockdown, cell lines were transfected with siRNAs (25 nM) using Lipofectamine RNAiMAX. After 48 hrs, cells were trypsinized and transfected repeatedly with siRNAs (25 nM) using Lipofectamine RNAiMAX. Cells were trypsinized after a further 48 hrs, counted, and reseeded at the specified density in 96-well plates. After 72-120 hrs, luminescence was measured using an Envision Multi-label plate reader (PerkinElmer). Cell viability was also measured using the CellTiter-Glo Luminescent Cell Viability Assay (Promega). Caspase-3/7, GSH, and ROS levels were normalized against cell viability. The GSH/GSSG ratio was calculated as the GSH-GSSG signal divided by the GSSG/2 signal. Relative signal ratios in treated samples were normalized against untreated samples.

A short description of data set [2]: Drug library screen, cell viability (CellTiter-Glo). Conditions: human; HCT116 ARID1A-WT; 10 μM for 5 days; relative to cells treated with solvent (DMSO); read-out: Cell viability, WT. In a few lines: (§1)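 Luminescent ATP read-out (CellTiter-Glo) at day 5, normalised to solvent (DMSO) controls, in paired HCT116 lines, ARID1A knockout versus wild type. Candidates selected where KO cells fell below 40% viability and WT cells stayed above 80%.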

Another data set concerns ARID1A-KO HCT116 cells. The description is as above. The settings on record: Homo sapiens, HCT-116, 120 h; HCT116 ARID1A-KO; 10 μM for 5 days; relative to cells treated with solvent (DMSO); read-out: Cell viability, KO. In a few lines: as §1

For the compound `COc1ccc(C2=N[C@@H](c3ccc(Cl)cc3)[C@@H](c3ccc(Cl)cc3)N2C(=O)N2CCNC(=O)C2)c(OC(C)C)c1` [Nutlin3a], the “expression of p53 and p21” value in the data set on p53, p21 is “increased the p53 level and upregulated the p53 target p21”.
For the compound `CC(=O)OC[C@H]1O[C@@H]([S-])[C@H](OC(C)=O)[C@@H](OC(C)=O)[C@@H]1OC(C)=O.CCP(CC)CC.[Au+]` [auranofin], in data set [1] (four ARID1A-proficient and six ARID1A-deficient cell lines, cell viability, colony formation), the “sensitivity of ARID1A-deficient versus ARID1A-proficient cancer cells” value was “more sensitive to the TrxR inhibitor auranofin than ARID1A-proficient cells”. Further, the “GSH level in cancer cell lines” value in the data set on GSH is “more evident in ARID1A-deficient cancer cells”. Moreover, the “ROS level in cancer cell lines” value in the data set on ROS was “more evident in ARID1A-deficient cancer cells”.
By viability is commonly meant a read-out of living cells in per cent, often relative to untreated cells. `C[C@@H](Oc1cc(-c2cnn(C3CCNCC3)c2)cnc1N)c1c(Cl)ccc(F)c1Cl` [crizotinib]: the viability at 5 days, 10 μM in data set [2] was found to be 2.29%. The viability at 10 µM in the data set on ARID1A-KO HCT116 cells is 5.88%.
On to `CC1=C2C[C@H]3[C@@H](CC=C4C[C@@H](O)CC[C@@]43C)[C@@H]2CC[C@]12O[C@@H]1C[C@H](C)CN[C@H]1[C@H]2C` [cyclopamine], for which the viability in data set [2] turned out to be 49.3%. For the same compound, in the data set with ARID1A-KO HCT116 cells, the viability at 10 µM is 86.7%.
`Cc1nc(Nc2ncc(C(=O)Nc3c(C)cccc3Cl)s2)cc(N2CCN(CCO)CC2)n1` [dasatinib]: the viability at 5 days, 10 μM in data set [2] came out at 33.5%. In the data set with ARID1A-KO HCT116 cells, the viability at 10 µM worked out at 37.8%.
In the same order, the values of `CNCCCN1c2ccccc2CCc2ccccc21` [desipramine hydrochloride] are 34.6% and 63.1%.
In the case of `C#Cc1cccc(Nc2ncnc3cc(OCCOC)c(OCCOC)cc23)c1` [erlotinib], the viability at 5 days, 10 μM in data set [2] was found to be 48.1%. In addition, the viability at 10 µM with ARID1A-KO HCT116 cells came out at 48.6%.
Take `CO[C@H]1C[C@@H]2CC[C@@H](C)[C@@](O)(O2)C(=O)C(=O)N2CCCC[C@H]2C(=O)O[C@H]([C@H](C)C[C@@H]2CC[C@@H](OCCO)[C@H](OC)C2)CC(=O)[C@H](C)/C=C(\C)[C@@H](O)[C@@H](OC)C(=O)[C@H](C)C[C@H](C)/C=C/C=C/C=C/1C` [everolimus]: the viability at 5 days, 10 μM in data set [2] was determined as 77.4%. Moreover, the viability at 10 µM with ARID1A-KO HCT116 cells amounted to 77.1%.
Consider `COc1cc2ncnc(Nc3ccc(F)c(Cl)c3)c2cc1OCCCN1CCOCC1` [gefitinib], for which the viability at 5 days, 10 μM in data set [2] amounted to 54.5%. Also, the viability at 10 µM in the data set with ARID1A-KO HCT116 cells is 72.4%.
On to `Cc1ccc(NC(=O)c2ccc(CN3CCN(C)CC3)cc2)cc1Nc1nccc(-c2cccnc2)n1` [imatinib mesylate], for which, in data set [2], the viability at 5 days, 10 μM was determined as 37.2%. Moreover, in the data set on ARID1A-KO HCT116 cells, the viability at 10 µM came out at 55.4%.
In the same order, the values of `O=C1NC(=O)c2c1c1c3ccccc3[nH]c1n1cncc21` [isogranulatimide] are 118% and 151%.
For the compound `CS(=O)(=O)CCNCc1ccc(-c2ccc3ncnc(Nc4ccc(OCc5cccc(F)c5)c(Cl)c4)c3c2)o1` [lapatinib], in data set [2], the viability at 5 days, 10 μM is 52.7%. Moreover, the viability at 10 µM with ARID1A-KO HCT116 cells was 78.4%.
Regarding `Nc1cccc2c1CN(C1CCC(=O)NC1=O)C2=O` (stereo not drawn) [lenalidomide], the viability at 5 days, 10 μM in data set [2] came out at 91.1%. Besides, in the data set on ARID1A-KO HCT116 cells, the viability at 10 µM is 112%.
Turning to `Cc1cn(-c2cc(NC(=O)c3ccc(C)c(Nc4nccc(-c5cccnc5)n4)c3)cc(C(F)(F)F)c2)cn1` [nilotinib], the viability at 5 days, 10 μM in data set [2] amounted to 85.8%. Also, the viability at 10 µM in the data set with ARID1A-KO HCT116 cells amounted to 91.6%.
As to `CCCCCCCCCCC[C@@H](C[C@@H]1OC(=O)[C@H]1CCCCCC)OC(=O)[C@H](CC(C)C)NC=O` [orlistat], the viability at 5 days, 10 μM in data set [2] turned out to be 84.6%. In the data set on ARID1A-KO HCT116 cells, the viability at 10 µM turned out to be 86.1%.
As for `Cc1ccc(Nc2nccc(N(C)c3ccc4c(C)n(C)nc4c3)n2)cc1S(N)(=O)=O` [pazopanib], the viability at 5 days, 10 μM in data set [2] is 19.8%. Also, the viability at 10 µM with ARID1A-KO HCT116 cells turned out to be 39.8%.
In the same order, the values of `CNC(=O)c1cc(Oc2ccc(NC(=O)Nc3ccc(Cl)c(C(F)(F)F)c3)cc2)ccn1` [sorafenib] are 61.4% and 70.4%.
Turning to `O=C(O)c1cc(/N=N/c2ccc(S(=O)(=O)Nc3ccccn3)cc2)ccc1O` [sulfasalazine], the “sensitivity of ARID1A-deficient TOV21G versus ARID1A-proficient RMG-I ovarian cancer cells” value in data set [1] (cell viability after 3 days) is listed as “more sensitive than ARID1A-proficient RMG-I ovarian cancer cells”.
On to `CCN(CC)CCNC(=O)c1c(C)[nH]c(/C=C2\C(=O)Nc3ccc(F)cc32)c1C` [sunitinib malate], for which, in data set [2], the viability at 5 days, 10 μM came to 3.23%. Also, the viability at 10 µM with ARID1A-KO HCT116 cells was determined as 5.95%.
Regarding `CC(C)(C)c1cc(O)ccc1O` [t-Butylhydroquinone (BHQ), t-Butylhydroquinone], the viability at 5 days, 10 μM in data set [2] worked out at 95.4%. The viability at 10 µM in the data set on ARID1A-KO HCT116 cells was found to be 96.6%.
Turning to `CC1(C)CCC(C)(C)c2cc(NC(=O)c3ccc(C(=O)O)cc3)ccc21` [tamibarotene], the viability at 5 days, 10 μM in data set [2] is 77.3%. In the data set on ARID1A-KO HCT116 cells, the viability at 10 µM stood at 101%.
In the same order, the values of `Cn1nnc2c(C(N)=O)ncn2c1=O` [temozolomide] are 84.4% and 104%.
Turning to `CO[C@H]1C[C@@H]2CC[C@@H](C)[C@@](O)(O2)C(=O)C(=O)N2CCCC[C@H]2C(=O)O[C@H]([C@H](C)C[C@@H]2CC[C@@H](OC(=O)C(C)(CO)CO)[C@H](OC)C2)CC(=O)[C@H](C)/C=C(\C)[C@@H](O)[C@@H](OC)C(=O)[C@H](C)C[C@H](C)/C=C/C=C/C=C/1C` [temsirolimus], in data set [2], the viability at 5 days, 10 μM was 82.1%. Further, the viability at 10 µM in the data set on ARID1A-KO HCT116 cells stood at 75%.
In the same order, the values of `O=C1CCC(N2C(=O)c3ccccc3C2=O)C(=O)N1` (stereo not drawn) [thalidomide] are 95% and 107%.
On to `CC1=C(/C=C/C(C)=C/C=C/C(C)=C/C(=O)O)C(C)(C)CCC1` [tretinoin], for which the viability at 5 days, 10 μM in data set [2] was found to be 77.7%. For the same compound, the viability at 10 µM in the data set with ARID1A-KO HCT116 cells is 96.3%.
In the same order, the values of `O=C(CCCCCCC(=O)Nc1ccccc1)NO` [vorinostat] are 2.82% and 6.02%.
